Measured values as given in patent US6143769A, “Phenylacetic acid benzylamides” (Karl Thomae GmbH, priority 1983, dated 2000).
Like-named read-outs stand apart in the source and are kept apart here.

Assays:
blood glucose = assay: Test for hypoglycemic activity in fasted female rats (oral); type: in vivo; settings: Rattus norvegicus, po, 0.1 mg/kg, read-out: Change in glucose content compared with control
Protocol: Blood samples were taken immediately before the administration of the test compound and 1, 2, 3 and 4 hours afterwards, in each case from the retroorbital Venous plexus. 50 μl of each sample were deproteinated with 0.5 ml of 0.33 N perchloric acid and centrifuged. The glucose in the supernatant fluid was measured using the hexokinase method with the aid of an analytical photometer. The statistical evaluation was made using the t-test according to Student with p=0.05 as the limit of significance.

mice = assay: Acute toxicity of compound N, single oral dose, mice; type: in vivo; settings: 14 days
Protocol: The toxic effect of a single dose of compound N administered orally (suspended in 1% methyl cellulose) was tested in male and female mice of our own strain weighing from 20-26 g over an observation period of 14 days.

`CCOc1cc(CC(=O)NC(CC(C)C)c2ccccc2N2CCCCC2)ccc1C(=O)O` (racemic) [N, 2-ethoxy-4-[N-{1-(2-piperidino-phenyl)-3-methyl-1-butyl}-aminocarbonylmethyl]-benzoic acids] was tested, and the change in vivo at 0.1 mg/kg (blood glucose; 1 h) was -38%, the change in vivo at 0.1 mg/kg (blood glucose; 2 h) was -44% and the change in vivo at 0.1 mg/kg (blood glucose; 3 h) was -41%. The change in vivo at 0.1 mg/kg (blood glucose; 4 h) was -40%, the Deaths (mice; 1000 mg/kg p.o.) was 0 out of 6 animals died and the Approximate acute toxicity (mice; p.o.) was over 1000 mg/kg.
